Reference: US12492403B2, “Aptamers and the use thereof in the treatment of cancer” (FUNDACIÓN PARA LA INVESTIGACIÓN BIOMÉDICA DEL HOSPITAL …, priority 2018, dated 2025)

System: DNase I
Assay: Stability in the presence of DNase I
Assay type: in vitro ADME, human
Details: 1 unit of DNase I, 5 minutes at 37° C.
Procedure: FIGS. 7A and 7B. Stability of apMNKQ2. Chip Experion™ DNA 1K Analysis Kit (BioRad, USA) for analyzing the stability of apMNKQ2 with 1 unit, 0.5 units, and 0.25 units of DNase I (FIG. 7A). In FIG. 7B, the degradation of aptamer apMNKQ2 in human plasma at 0, 6, 16, 24, 48, and 72 hours is depicted.
In the context of the present invention, the term “incubated” is understood to mean being subjected to the assay conditions, specifically to incubation in a buffer with 10 mM Tris HCl, pH 7.5, 2.5 mM MgCl2, and 0.1 mM CaCl2).
In the context of the present invention, the term “1 unit of DNase I” is understood to mean the amount of DNase I which completely degrades 1 μg of DNA in 10 minutes at 37° C.
In the context of the present invention, “DNase I” is understood to mean the deoxyribonuclease-I protein encoded by the human DNASE1 gene. […]
The previously structured aptamer apMNKQ2 (1 μg) was incubated in the presence of 1 unit, 0.5 units, and 0.25 units of the enzyme DNase I (ThermoFisher Scientific, USA) in the buffer supplied by the company (10 mM Tris HCl, pH 7.5, 2.5 mM MgCl2, 0.1 mM CaCl2)) for 5 minutes at 37° C., and the reaction was then stopped by adding 1 μL of 50 mM EDTA (ThermoFisher Scientific, USA) and heating at 65° C. for 10 minutes. […] The samples were analyzed using an Experion™ DNA 1K Analysis Kit chip (BioRad, USA). […]

With “5′TGGGGTGGGCGGGCGGGGGTGGGGGTGGT-3′ (DNA, backbone and methylation of C not given here; further chemistry not fully specified) [apMNKQ2]” as the substance, how does the stability read?
The stability was 100%.
